Series [1] has as its system Staphylococcus epidermidis. Nature of the series: Antimicrobial activity against methicillin-resistant Staphylococcus epidermidis. It counts as functional.
For the next series, the system named is Staphylococcus aureus. Nature of the series: Antimicrobial activity against methicillin-resistant Staphylococcus aureus. Format: functional.
Series [2] concerns Escherichia coli. Kind of series: Antimicrobial activity against Escherichia coli. Format: functional.
For a further series, the system named is Pseudomonas aeruginosa. Kind of series: microbe, parasite or virus in culture. Format: functional.
For series [3] the following is noted: erythrocyte.
Series [4] deals with Aspergillus fumigatus. Nature of the series: Antimicrobial activity against Aspergillus fumigatus. It counts as functional.
Series [5] in a line: Toxicity in RBC assessed as hemolysis at 25 uM. It counts as cell-based. Conditions: erythrocyte.
The subject of the next series is Bacillus subtilis. Nature of the series: Antimicrobial activity against Bacillus subtilis. It counts as functional.
A short description of the next series: in vitro. Conditions: red blood cells.
Series [6] concerns Aspergillus fumigatus. Kind of series: Antimicrobial activity against Aspergillus fumigatus at pH 7.4. Format: functional.
Series [7] has as its system Escherichia coli. Nature of the series: Antimicrobial activity against Escherichia coli at pH 5.5. Format: functional.
A short description of series [8]: Toxicity in RBC assessed as hemolysis at 50 uM at pH 7.4. Format: cell-based. The settings on record: erythrocyte, pH 7.4, 50 µM.
Series [9] concerns Aspergillus fumigatus. Kind of series: Antimicrobial activity against Aspergillus fumigatus at pH 5.5. It counts as functional.
Series [10] relates to Escherichia coli. Kind of series: Antimicrobial activity against Escherichia coli at pH 7.4. Format: functional.

In brackets after ≈: the same amount, converted by molar mass. Where a SMILES comes first, the peptide text is derived from it. [ ]: non-standard residue; d: D form. The star is where a group is joined. Leu(5,5,5,5',5',5'-F6) = N[C@@H](CC(C(F)(F)F)C(F)(F)F)C(=O)O; Lauroyl = CCCCCCCCCCCC(=O)* Some results are limits rather than exact numbers.

On to `NC[C@H]1O[C@@H](O[C@@H]2[C@@H](O[C@@H]3O[C@H](COC(=O)Nc4ccccc4)[C@@H](O[C@@H]4O[C@H](CN)[C@@H](O)[C@H](O)[C@H]4N)[C@H]3OC(=O)Nc3ccccc3)[C@@H](O)[C@H](N)C[C@@H]2N)[C@H](N)[C@@H](O)[C@@H]1O.O=C(O)C(F)(F)F`, for which the MIC in series [1] came to 0.5 µg/mL; in the series with Staphylococcus aureus, 1 µg/mL.
On to `CC[C@@H](C)[C@@H](NC(=O)[C@@H](C)NC(=O)[C@@H](CCCCN)NC(=O)[C@@H](CC(C)C)NC(=O)[C@@H](C)NC(=O)[C@H](NC(=O)[C@@H](Cc1cnc[nH]1)NC(=O)[C@@H](CC(C)C)NC(=O)[C@H](NC(=O)[C@H](NC(=O)[C@@H](CCCCN)NC(=O)[C@@H](CCCCN)NC(=O)[C@@H](C)NC(=O)[C@@H](CO)NC(=O)[C@@H](CCCCN)NC(=O)[C@@H](Cc1ccccc1)NC(=O)[C@H](NC(=O)[C@@H](CCCCN)NC(=O)[C@@H](CC(C)C)NC(=O)[C@@H](Cc1ccccc1)NC(=O)[C@@H](CO)NC(=O)[C@@H](CCCCN)NC(=O)[C@@H](Cc1c[nH]c2ccccc12)NC(=O)[C@@H](CCCCN)NC(C)=O)[C@H](C)O)[C@H](C)O)C(C)C)[C@H](C)O)C(=O)N[C@H](CO)C(=O)N[C@H](CO)C(N)=O`, for which the figures for the MIC in the series with Escherichia coli [2] and in the series with Pseudomonas aeruginosa were 1.1 µM (≈ 3.29 µg/mL) and 5.3 µM (≈ 15.9 µg/mL), respectively.
Consider `CC[C@H](C)[C@H](NC(=O)[C@H](CC(C)C)NC(=O)[C@H](CCCCN)NC(=O)[C@H](CC(C)C)NC(=O)[C@H](CC(C)C)NC(=O)[C@@H](NC(=O)[C@H](Cc1cnc[nH]1)NC(=O)[C@H](CC(C)C)NC(=O)[C@@H](NC(=O)[C@@H](NC(=O)[C@H](CCCCN)NC(=O)[C@H](CCCCN)NC(=O)[C@H](CC(C)C)NC(=O)[C@H](CO)NC(=O)[C@H](CCCCN)NC(=O)[C@H](Cc1ccccc1)NC(=O)[C@@H](NC(=O)[C@H](CCCCN)NC(=O)[C@H](CC(C)C)NC(=O)[C@H](Cc1ccccc1)NC(=O)[C@H](CO)NC(=O)[C@H](Cc1c[nH]c2ccccc12)NC(=O)[C@H](CCCCN)NC(C)=O)[C@@H](C)O)[C@@H](C)O)C(C)C)[C@@H](C)O)C(=O)N[C@@H](CO)C(=O)N[C@@H](CO)C(N)=O`, for which, in series [3], the MHC was 1.3 µM. The MIC against Pseudomonas aeruginosa was 168 µM (≈ 502 µg/mL).
Take `CC(C)C[C@@H](N)C(=O)N[C@@H](CCCCN)C(=O)N[C@@H](CCCCN)C(=O)N[C@H](CC(C)C)C(=O)N[C@H](CC(C)C)C(=O)N[C@H](CC(C)C)C(=O)N[C@@H](CCCCN)C(=O)N[C@@H](CCCCN)C(=O)N[C@H](CC(C)C)C(=O)N[C@H](CC(C)C)C(=O)N[C@@H](CCCCN)C(=O)N[C@@H](CCCCN)C(=O)N[C@H](CC(C)C)C(N)=O`: the MIC was more than 50 µM in the series with Escherichia coli [2] and 50 µM (≈ 78.9 µg/mL) with Aspergillus fumigatus [4]. In addition, in series [5], the MHC entry is listed as “Non-toxic”.
As to `CCCCCCCCCCCC(=O)N[C@H](CC(C)C)C(=O)N[C@@H](CCCCN)C(=O)N[C@@H](CCCCN)C(=O)N[C@H](CC(C)C)C(=O)N[C@H](CC(C)C)C(=O)N[C@H](CC(C)C)C(=O)N[C@@H](CCCCN)C(=O)N[C@@H](CCCCN)C(=O)N[C@H](CC(C)C)C(=O)N[C@H](CC(C)C)C(=O)N[C@@H](CCCCN)C(=O)N[C@@H](CCCCN)C(=O)N[C@H](CC(C)C)C(N)=O`, the MIC in the series with Escherichia coli [2] was found to be 25 µM (≈ 44 µg/mL); against Aspergillus fumigatus [4], 6.25 µM (≈ 11 µg/mL). Further, the MHC result in [5] was “Non-toxic”.
In the case of `CC[C@H](C)[C@H](NC(=O)[C@H](C)NC(=O)[C@H](CCCCN)NC(=O)[C@H](C)NC(=O)[C@H](C)NC(=O)[C@@H](NC(=O)[C@H](Cc1cnc[nH]1)NC(=O)[C@H](CC(C)C)NC(=O)[C@@H](NC(=O)[C@@H](NC(=O)[C@H](CCCCN)NC(=O)[C@H](CCCCN)NC(=O)[C@H](C)NC(=O)[C@H](CO)NC(=O)[C@H](CCCCN)NC(=O)[C@H](Cc1ccccc1)NC(=O)[C@@H](NC(=O)[C@H](CCCCN)NC(=O)[C@H](C)NC(=O)[C@H](Cc1ccccc1)NC(=O)[C@H](CO)NC(=O)[C@H](CCCCN)NC(=O)[C@H](Cc1c[nH]c2ccccc12)NC(=O)[C@H](CCCCN)NC(C)=O)[C@@H](C)O)[C@@H](C)O)C(C)C)[C@@H](C)O)C(=O)N[C@@H](CO)C(=O)N[C@@H](CO)C(N)=O` (Ac-KWKSFAKTFKSAKKTVLHTAAKAISS-NH2), the MHC in [3] came to 336 µM. Further, in the series with Pseudomonas aeruginosa, the MIC came to 168 µM (≈ 488 µg/mL).
As for `CC(C)C[C@H](NC(=O)[C@H](CC(C)C)NC(=O)[C@H](CCCNC(=N)N)NC(=O)[C@H](Cc1cnc[nH]1)NC(=O)[C@@H](NC(=O)[C@H](CCCNC(=N)N)NC(=O)CNC(=O)[C@@H](NC(=O)[C@@H]1CCCN1C(=O)[C@@H](N)Cc1ccccc1)C(C)C)C(C)C)C(=O)N[C@@H](CCCNC(=N)N)C(=O)N[C@@H](CCCCN)C(=O)O` (H-FPVGRVHRLLRK-OH), the MIC against Bacillus subtilis and against Escherichia coli [2] was more than 173 µM in each case. Besides, in “in vitro”, the HC50 (usually the concentration giving 50% haemolysis) was more than 270 µM.
As to `CC(C)[C@H](NC(=O)[C@H](CCCNC(=N)N)NC(=O)CNC(=O)[C@@H](NC(=O)[C@@H]1CCCN1C(=O)[C@@H](N)Cc1ccccc1)C(C)C)C(=O)N[C@@H](Cc1cnc[nH]1)C(=O)N[C@@H](CCCNC(=N)N)C(=O)N[C@@H](CC(C(F)(F)F)C(F)(F)F)C(=O)N[C@@H](CC(C(F)(F)F)C(F)(F)F)C(=O)N[C@@H](CCCNC(=N)N)C(=O)N[C@@H](CCCCN)C(=O)O` (H-FPVGRVHR[Leu(5,5,5,5',5',5'-F6)][Leu(5,5,5,5',5',5'-F6)]RK-OH), the MIC in the series with Bacillus subtilis was found to be 5.9 µM (≈ 9.99 µg/mL); against Escherichia coli [2], 23 µM (≈ 39 µg/mL). Also, in the series “in vitro”, the HC50 is more than 235 µM.
On to `CC[C@H](C)[C@H](NC(=O)CN)C(=O)NCC(=O)N[C@@H](CCCCN)C(=O)N[C@@H](Cc1ccccc1)C(=O)N[C@@H](CC(C(F)(F)F)C(F)(F)F)C(=O)N[C@@H](Cc1cnc[nH]1)C(=O)N[C@@H](C)C(=O)N[C@@H](C)C(=O)N[C@@H](CCCCN)C(=O)N[C@@H](CCCCN)C(=O)N[C@@H](Cc1ccccc1)C(=O)N[C@@H](C)C(=O)N[C@@H](CCCCN)C(=O)N[C@@H](C)C(=O)N[C@@H](Cc1ccccc1)C(=O)N[C@H](C(=O)N[C@@H](C)C(=O)N[C@@H](CCC(=O)O)C(=O)N[C@@H](CC(C(F)(F)F)C(F)(F)F)C(=O)N[C@@H](CCSC)C(=O)N[C@@H](CC(N)=O)C(=O)N[C@@H](CO)C(N)=O)C(C)C` (H-GIGKF[Leu(5,5,5,5',5',5'-F6)]HAAKKFAKAFVAE[Leu(5,5,5,5',5',5'-F6)]MNS-NH2), for which the MIC against Bacillus subtilis and in the series with Escherichia coli [2] was 0.92 µM (≈ 2.48 µg/mL) each time. The HC50 in “in vitro” was 7.4 µM.
In the case of `CSCC[C@H](NC(=O)[C@@H](NC(=O)[C@H](CCCNC(=N)N)NC(=O)[C@H](Cc1ccccc1)NC(=O)[C@H](C)NC(=O)[C@H](C)NC(=O)[C@H](CCCCN)NC(=O)[C@H](CCCNC(=N)N)NC(=O)[C@H](Cc1ccccc1)NC(=O)[C@H](C)NC(=O)[C@@H]1CCCN1C(=O)[C@@H](N)CCCNC(=N)N)C(C)C)C(=O)N[C@@H](CCCNC(=N)N)C(=O)N[C@@H](C)C(=O)N[C@@H](CS)C(=O)N[C@H](C(N)=O)C(C)C` (H-RPAFRKAAFRVMRACV-NH2), the MHC in series [3] is more than 1300 µM. In the series with Pseudomonas aeruginosa, the MIC stood at 4 µM (≈ 7.51 µg/mL).
Turning to `CCCCCCCCCCCC(=O)N[C@H](CC(C)C)C(=O)N[C@@H](Cc1cnc[nH]1)C(=O)N[C@@H](Cc1cnc[nH]1)C(=O)N[C@H](CC(C)C)C(=O)N[C@H](CC(C)C)C(=O)N[C@@H](Cc1cnc[nH]1)C(=O)N[C@@H](Cc1cnc[nH]1)C(=O)N[C@H](CC(C)C)C(=O)N[C@H](CC(C)C)C(=O)N[C@@H](Cc1cnc[nH]1)C(=O)N[C@@H](Cc1cnc[nH]1)C(=O)N[C@H](CC(C)C)C(N)=O` (Lauroyl-[dL]HH[dL][dL]HH[dL][dL]HH[dL]-NH2), the MIC in the series on Aspergillus fumigatus [6] was more than 100 µM; against Escherichia coli [7], more than 100 µM; against Aspergillus fumigatus [9], 6.2 µM (≈ 10.5 µg/mL); against Escherichia coli [10] it was more than 100 µM. Also, in series [8], the MHC entry is on record as “Non-toxic”.
Consider `CC[C@H](C)[C@H](NC(=O)CN)C(=O)NCC(=O)N[C@@H](CCCCN)C(=O)N[C@@H](Cc1ccccc1)C(=O)N[C@@H](CC(C)C)C(=O)N[C@@H](Cc1c[nH]cn1)C(=O)N[C@@H](CO)C(=O)N[C@@H](C)C(=O)N[C@@H](CCCCN)C(=O)N[C@@H](CCCCN)C(=O)N[C@@H](Cc1ccccc1)C(=O)NCC(=O)N[C@@H](CCCCN)C(=O)N[C@@H](C)C(=O)N[C@@H](Cc1ccccc1)C(=O)N[C@H](C(=O)NCC(=O)N[C@@H](CCC(=O)O)C(=O)N[C@H](C(=O)N[C@@H](CCSC)C(=O)N[C@@H](CC(N)=O)C(=O)N[C@@H](CO)C(=O)O)[C@@H](C)CC)C(C)C` [MAGAININ 2] (H-GIGKFLHSAKKFGKAFVGEIMNS-OH), for which the MIC in the series on Bacillus subtilis and with Escherichia coli [2] was 1 µM (≈ 2.47 µg/mL) throughout. In addition, in the series “in vitro”, the HC50 came out at 70.6 µM.

Source of the values: ChEMBL document CHEMBL1671744 (Antimicrob Agents Chemother, 2010).
